Patent publication US4530932A, “4-(1H-indol-3-yl)-α-methyl-piperidine-1-ethanol derivatives” (Roussel Uclaf, priority 1982, dated 1985)
Where a name gives a salt, the structure may show the parent alone. Read-outs that look alike come from different tables or passages of the source.

Tests used:
[1] = tested on: Rat arteries (arterial contractions, entry of calcium ions into the cells of smooth muscles); assay: In vitro anticalcic activity (inhibition of potassium-depolarized, calcium-induced contractions of isolated rat arteries); type: cell-based; settings: dose inhibiting by 50% the contractions caused by potassium ions (100 mM), 37° C., read-out: CI50 (the source's name)
Experimental: Rat arteries decoupled in a spiral were attached to a tension collector and were maintained in tanks containing 2.5 ml of Krebs-sodium bicarbonate buffer (NaCl: 120.8 mM, KCl: 5.9 mM, MgCl2 : 1.2 mM, NaH2 PO4 : 1.2 mM, NaHCO3 : 15.5 mM, glucose: 12.6 mM), at 37° C. covered with a 95%-5% oxygen-carbon dioxide mixture. The preparations were depolarized with a buffered solution containing 100 mM of potassium ions (NaCl: 26.7 mM, KCl: 100 mM, MgCl2 : 1.2 mM, NaH2 PO4 : 1.2 mM, NaHCO3 : 15.5 mM, glucose 12.6 mM).
A volume of 25 μl of calcium chloride was added to the mixture in a manner to obtain a range of increasing concentrations of calcium ions from 0.1 to 3.0 mM and the contractions of the artery were measured to obtain a control. The operation with range of calcium ions was repeated every 15 minutes and the preparation was washed 4 times after each range. When a stable response was obtained, the operation with the range of calcium ions was effected in the presence of varying concentrations of test compounds until a stable response was obtained.
The arterial contractions depend on the entry of calcium ions into the cells of smooth muscles and are provoked by depolarization of smooth muscles by potassium ions and by action of noradrenaline freed by presynapthic level. By recommencing the operation with denerved arteries by the action of 6-hydroxy-dopamine, the specific action due to noradrenaline is suppressed.

[2] = tested on: cardiac rhythm troubles in guinea pigs; assay: Antiarythmic action (K-strophanthine and adrenaline induced cardiac rhythm troubles); type: in vivo, guinea pig; settings: Cavia porcellus, 1 h, oral 10 mg/kg, one hour before K-strophanthine and adrenaline perfusion, read-out: Percentage of protection (lengthening of the time of appearance of cardiac rhythm troubles as compared to controls)
Experimental: Male guinea pigs weighing between 450 and 500 g were tracheotomized while anesthesized by intraperitoneal administration of […] of urethane and were subjected to artifical respiration of 40 to 50 breaths of 5 ml per minute. Needles were subcutaneously implanted to register an electrocardiogram of the guinea pigs for the signal of D II derivation. The test products were orally administered and one hour later, the jugular vein of the guinea pigs were perfused with 0.5 ml per minute of a solution of 150 γ/ml of K-strophanthine and 0.5 ml per minute of a solution of 5 γ/ml of adrenaline and the number of times of the appearance of cardiac rhythm troubles was noted. The results are expressed in percentage of protection with an oral dose of 10 mg/kg of test product that is to say the percentage of lengthening of the time of appearance of cardiac rhythm troubles as compared to the controls.

α1 adrenergic receptors = assay: Affinity for α1 adrenergic receptors (3H prazosine displacement, rat brain); type: binding; settings: relative to phentolamine (ARL=100×(CB/CX)), 25° C., pH 7.7
Experimental: After centrifugation at 30,000 g for 15 minutes at 0° to 4° C., the culot was suspended in 240 ml of buffer Tris HCl 50 mM (pH-7.7) and the suspension was centrifuged at 30,000 g for 20 minutes at 0° to 4° C. The new culot was suspended in 480 ml of buffer Krebs Tris HCl (pH of 7.7-50 mM) and 2 ml of the suspension in the presence of 3H prazosine at a concentration of […] alone and with increasing concentrations of the test compound or with non-radioactive phentolamine at a concentration of 10^-5 M to determine the non-specific fixation was incubated at 25° C. for 30 minutes.
The incubated suspensions were filtered through Whatman FG/C and the filtered were washed with 3 times with 5 ml of buffer Krebs Tris HCl-pH of 7.7 at 0° to 4° C. The radioactivity of the filters was measured by liquid scintillation and the affinity of the test compound for α1 adrenergic receptors was compared relative to phentolamine as the reference compound by the formula
CD=concentration of phentolamine inhibiting by 50% the specific fixation of 3H prazosine.
CX=concentration of test product inhibiting by 50% the specific fixation of 3H prazosine.

mice = assay: Acute toxicity (DL0, oral); type: in vivo, mouse; parameters: unit not given here
[3] = tested on: carotidien arterial pressure in rats; assay: Hypotensive activity (carotidien arterial pressure in anesthesized rats); type: in vivo, rat (Wistar); settings: rat, intravenous
Experimental: The hypotensive activity was studied on male rats of the Wistar strain weighing about 300 g and anesthesized with 50 mg/kg of nembutal intraveinously. The test products were administered intraveinously by the jugular vein and the carotidien arterial pressure was measured before and after administration of the test compounds. The variations expressed in percentage of arterial pressure after administration with respect to the initial pressure is reported in Table IV.

[4] = 1 min, 1 minute, read-out: % Variation of arterial pressure after administration, 1 minute
[5] = 5 min, 5 minutes, read-out: % Variation of arterial pressure after administration, 5 minutes
[6] = 10 min, 10 minutes, read-out: % Variation of arterial pressure after administration, 10 minutes
[7] = 0.5 h, 30 minutes, read-out: % Variation of arterial pressure after administration, 30 minutes

| SMILES | IC50 [1] [µM] | change in vivo at 10 mg/kg [2] [%] | % Arl (relative affinity for α1 adrenergic receptors) (α1 adrenergic receptors) [%] | DL0 (maximum dose which did not cause any deaths after 8 days) (mice) | change in vivo at 1 mg/kg [3, 4] [%] | change in vivo at 1 mg/kg [3, 5] [%] | change in vivo at 1 mg/kg [3, 6] [%] | change in vivo at 1 mg/kg [3, 7] [%] |
| --- | --- | --- | --- | --- | --- | --- | --- | --- |
| OC(COc1ccccc1)CN1CCC(c2c[nH]c3ccccc23)CC1 (stereo not drawn) [Example 3, 4-(1H--indol-3-yl)-α-[phenoxymethyl]-piperidine-1-ethanol hydrochloride] | 2.5 | 55 | – | – | – | – | – | – |
| O=[N+]([O-])c1ccc(OCC(O)CN2CCC(c3c[nH]c4ccccc34)CC2)cc1 (stereo not drawn) [Example 5, 4-(1H--indol-3-yl)-α-[4-nitrophenoxymethyl]-piperidine-1-ethanol hydrochloride] | 4.5 | 82 | 77 | > 200 | – | – | – | – |
| COc1ccc(OCC(O)CN2CCC(c3c[nH]c4ccccc34)CC2)cc1 (stereo not drawn) [Example 8, 4-(1H--indol-3-yl)-α-[4-methoxyphenoxymethyl]-piperidine-1-ethanol hydrochloride] | 4.2 | 57 | 222 | > 200 | -10 | -13 | 0 | -13 |
| COc1ccccc1OCC(O)CN1CCC(c2c[nH]c3ccccc23)CC1 (stereo not drawn) [Example 14, 4-(1H--indol-3-yl)-α-[2-methoxyphenoxymethyl]-piperidine-1-ethanol hydrochloride] | 11 | 83 | – | > 100 | – | – | – | – |
| Cc1cccc(OCC(O)CN2CCC(c3c[nH]c4ccccc34)CC2)c1 (stereo not drawn) [Example 18, 4-(1H--indol-3-yl)-α-[3-methylphenoxymethyl]-piperidine-1-ethanol hydrochloride] | 2 | 23 | – | > 100 | – | – | – | – |
| Nc1ccccc1OCC(O)CN1CCC(c2c[nH]c3ccccc23)CC1 (stereo not drawn) [Example 19, 4-(1H--indol-3-yl)-α-[2-amino-phenoxymethyl]-piperidine-1-ethanol fumarate] | – | 165 | – | > 100 | – | – | – | – |
| CC(=O)Nc1ccccc1OCC(O)CN1CCC(c2c[nH]c3ccccc23)CC1 (stereo not drawn) [Example 20, 4-(1H--indol-3-yl)-α-[2-acetamidophenoxymethyl]-piperidine-1-ethanol hydrochloride] | – | – | 311 | – | – | – | – | – |
| Cc1ccc(OCC(O)CN2CCC(c3c[nH]c4ccccc34)CC2)cc1 (stereo not drawn) [Example 21, 4-(1H--indol-3-yl)-α-[4-methylphenoxymethyl]-piperidine-1-ethanol hydrochloride] | 1.8 | 60 | 93 | > 100 | – | – | – | – |
| OC(COc1cccc(Cl)c1)CN1CCC(c2c[nH]c3ccccc23)CC1 (stereo not drawn) [Example 22, 4-(1H--indol-3-yl)-α-[3-chloro-phenoxymethyl]-piperidine-1-ethanol hydrochloride] | 1.8 | – | 70 | 80 | – | – | – | – |
| COc1cccc(OCC(O)CN2CCC(c3c[nH]c4ccccc34)CC2)c1 (stereo not drawn) [Example 23, 4-(1H--indol-3-yl)-α-[3-methoxyphenoxymethyl]-piperidine-1-ethanol hydrochloride] | 2.7 | 73 | – | > 200 | -7 | -19 | 14 | -17 |
| C=CCOc1ccccc1OCC(O)CN1CC=C(c2c[nH]c3ccccc23)CC1 (stereo not drawn) [Example 24, 4-(1H--indol-3-yl)-α-[2-prop-2-enyloxy)-phenoxymethyl]-1,2,3,6,tetrahydropyridine-1-ethanol fumarate] | 0.7 | – | – | > 200 | -10 | -16 | -11 | -17 |
| OC(COc1ccc(C(F)(F)F)cc1)CN1CCC(c2c[nH]c3ccccc23)CC1 (stereo not drawn) [Example 25, 4-(1H--indol-3-yl)-α-[4-trifluoramethylphenoxymethyl]-piperidine-1-ethanol hydrochloride] | 1.5 | 35 | – | 100 | -5 | -14 | -6 | -14 |
| C=CCOc1ccc(OCC(O)CN2CCC(c3c[nH]c4ccccc34)CC2)cc1 (stereo not drawn) [Example 26, 4-(1H--indol-3-yl)-α-[4-prop-2-enyloxy)-phenoxymethyl]-piperidine-1-ethanol hydrochloride] | 1.5 | 68 | – | > 200 | – | – | – | – |
| COc1ccc(OCC(O)CN2CCC(c3c[nH]c4ccccc34)CC2)cc1OC (stereo not drawn) [Example 27, 4-(1H--indol-3-yl)-α-[3,4-dimethoxyphenoxymethyl]-piperidine-1-ethanol hydrochloride] | – | 115 | – | 80 | – | – | – | – |
| C=CCOc1cccc(OCC(O)CN2CCC(c3c[nH]c4ccccc34)CC2)c1 (stereo not drawn) [Example 28, 4-(1H--indol-3-yl)-α-[3-(prop-2-enyloxy)-phenoxymethyl]-piperidine-1-ethanol hydrochloride] | 2.4 | 103 | – | > 100 | -5 | -10 | -6 | -9 |
| OC(COc1ccc(Cl)c(Cl)c1)CN1CCC(c2c[nH]c3ccccc23)CC1 (stereo not drawn) [Example 29, 4-(1H--indol-3-yl)-α-[3,4-dichlorophenoxymethyl]-piperidine-1-ethanol hydrochloride] | 2.4 | 53 | – | > 100 | – | – | – | – |
| Oc1cccc(OCC(O)CN2CCC(c3c[nH]c4ccccc34)CC2)c1 (stereo not drawn) [Example 30, 4-(1H--indol-3-yl)-α-[3-hydroxyphenoxymethyl]-piperidine-1-ethanol hydrochloride] | – | 86 | – | > 100 | – | – | – | – |
| C=CCOc1ccccc1OCC(O)CN1CCC(c2cn(C)c3ccccc23)CC1 (stereo not drawn) [Example 31, 4-(1-methyl-1H--indol-3-yl)-α-[2-(prop-2-enyloxy)-phenoxymethyl]-piperidine-1-ethanol fumarate] | 3 | 49 | – | – | – | – | – | – |
| C=CCOc1ccccc1OCC(O)CN1CCC(c2c[nH]c3ccc(OC)cc23)CC1 (stereo not drawn) [Example 32, 4-(5-methoxy-1H--indol-3-yl)-α -2-(prop-2-enyloxy)-phenoxymethyl]-piperidine-1-ethanol fumarate] | 1.9 | 20 | – | – | – | – | – | – |
